Test results published in publication PMC9490060, “Synthesis and evaluation of anticancer activity of quillaic acid derivatives: A cell cycle arrest and apoptosis inducer through NF-κB and MAPK pathways” (Frontiers in Chemistry, 2022).

Legend:
[1] = tested on: HepG2 (human hepatocellular carcinoma cell line); test: MTT anti-proliferative assay, HepG2; format: cell-based; details: Homo sapiens, HepG2, 48 h incubation, means ± SD, n = 3
Source text: (§1) The anti-proliferative activities against five human cancer cell lines, including HCT116 (human colorectal cancer cell line), MCF-7 (human breast cancer cell line), SW620 (human colorectal cancer cell line), BEL7402 (human hepatocellular carcinoma cell line), and HepG2 (human hepatocellular carcinoma cell line) were established for all the target compounds using the MTT assay.
(§2) The propidium iodide (PI) and Annexin V-FITC apoptosis detection kit were purchased from Invitrogen (Eugene, OR, United States). 3-(4,5-Dimethylthiazol-2-yl)-2,5-diphenyl-2H-tetrazolium bromide (MTT) was purchased from Sigma-Aldrich Co. (St. Louis, MO, United States). All human cell lines were used in this study, colorectal cancer cell HCT116, colorectal cancer cell SW620, breast cancer cell MCF-7, liver hepatocellular carcinoma cell BEL7402, liver hepatocellular carcinoma HepG2 and normal liver cell L02 were initially purchased from American Type Culture Collection (ATCC, Manassas, VA, United States). RPMI-1640 media, Dulbecco’s modified Eagle’s medium (DMEM), and foetal bovine serum (FBS) were provided from Gibco Company (Grand Island, NY, United States). Cell line MCF-7 and HepG2 were cultivated in DMEM containing 10% (v/v) heat-inactivated FBS, 100 units/ml penicillin and […] streptomycin (Grand Island, NY, United States). Cell lines HCT116, BEL7402, SW620, and L02 were cultivated in RPMI 1640 medium containing 10% (v/v) heat-inactivated FBS, 100 units/ml penicillin, and […] streptomycin. The cells were incubated at 37°C under a 5% CO2 and 90% relative humidity (RH) atmosphere.
(§3) Stock solutions were prepared by diluting target compounds in DMSO at concentrations (1.25, 2.5, 5, and 10 mM). The stock solution was then diluted (1.25, 2.5, 5, and 10 μM) with culture medium, and the concentration of DMSO was controlled not to exceed 0.1%.
(§4) Place the cells in a 96-well plate at an appropriate density to ensure exponential growth (1 × 10^4–1.2×10^4 cells per well) throughout the experiment, and then allow the cells to adhere for 24 h. The cells were then treated with continuous concentrations of each compound (1.25, 2.5, 5, and 10 μM) for 48 h. After 48 h of incubation, 15 μl of MTT solution was added to each well, and the final concentration was 2 mg/ml. Then incubate for another 4 h. After incubation, remove the MTT solution and add […] of DMSO to each well for staining. Shake vigorously for 10 min at room temperature to ensure complete dissolution. The optical density (OD) was read on a microplate reader (ELx 800, BioTek, Highland Park, Winooski, VT, United States) with a wavelength of 492 nm, and then the data was analyzed.

[2] = tested on: HCT116 (human colorectal cancer cell line); test: MTT anti-proliferative assay, HCT116; format: cell-based; details: Homo sapiens, HCT-116, 48 h incubation, means ± SD, n = 3
Source text: as §1, §2, §3, §4

[3] = tested on: BEL7402 (human hepatocellular carcinoma cell line); test: MTT anti-proliferative assay, BEL7402; format: cell-based; details: Homo sapiens, Bel-7402, 48 h incubation, means ± SD, n = 3
Source text: as §1, §2, §3, §4

[4] = tested on: SW620 (human colorectal cancer cell line); test: MTT anti-proliferative assay, SW620; format: cell-based; details: Homo sapiens, SW-620, 48 h incubation, means ± SD, n = 3
Source text: as §1, §2, §3, §4

[5] = tested on: MCF-7 (human breast cancer cell line); test: MTT anti-proliferative assay, MCF-7; format: cell-based; details: Homo sapiens, MCF7, 48 h incubation, means ± SD, n = 3
Source text: as §1, §2, §3, §4

IC50 [1] | melting point | IC50 [2] | IC50 [3] | IC50 [4] | IC50 [5] | SMILES
> 10 µM | 193 to 194 °C | > 10 µM | > 10 µM | > 10 µM | > 10 µM | CC1(C)CC[C@]2(C(=O)OCc3cn(-c4ccc([N+](=O)[O-])cc4)nn3)[C@H](O)C[C@]3(C)C(=CC[C@@H]4[C@@]5(C)CC[C@H](O)[C@@](C)(C=O)[C@@H]5CC[C@]43C)[C@@H]2C1 [Compound A10, (1-(4-nitrophenyl)-1H-1,2,3-triazol-4-yl)methyl (4aR,5R,6aS,6bR,8aR,9S,10S,12aR,12bR,14bS)-9-formyl-5,10-dihydroxy-2,2,6a,6b,9,12a-hexamethyl-1,3,4,5,6,6a,6b,7,8,8a,9,10,11,12,12a,12b,13,14b-octadecahydropicene-4a (2H)-carboxylate]
> 10 µM | 130 to 132 °C | > 10 µM | > 10 µM | > 10 µM | > 10 µM | CC1(C)CC[C@]2(C(=O)OCc3nnc(-c4ccccc4)o3)[C@H](O)C[C@]3(C)C(=CC[C@@H]4[C@@]5(C)CC[C@H](O)[C@@](C)(C=O)[C@@H]5CC[C@]43C)[C@@H]2C1 [Compound B1, (5-phenyl-1,3,4-oxadiazol-2-yl)methyl (4aR,5R,6aS,6bR,8aR,9S,10S,12aR,12bR,14bS)-9-formyl-5,10-dihydroxy-2,2,6a,6b,9,12a-hexamethyl-1,3,4,5,6,6a,6b,7,8,8a,9,10,11,12,12a,12b,13,14b-octadecahydropicene-4a (2H)-carboxylate]
> 10 µM | 132 to 134 °C | 5.01 ± 1.12 µM | > 10 µM | 8.18 ± 1.85 µM | > 10 µM | CC1(C)CC[C@]2(C(=O)OCc3nnc(-c4ccc(Cl)cc4)o3)[C@H](O)C[C@]3(C)C(=CC[C@@H]4[C@@]5(C)CC[C@H](O)[C@@](C)(C=O)[C@@H]5CC[C@]43C)[C@@H]2C1 [Compound B3, (5-(4-chlorophenyl)-1,3,4-oxadiazol-2-yl)methyl (4aR,5R,6aS,6bR,8aR,9S,10S,12aR,12bR,14bS)-9-formyl-5,10-dihydroxy-2,2,6a,6b,9,12a-hexamethyl-1,3,4,5,6,6a,6b,7,8,8a,9,10,11,12,12a,12b,13,14b-octadecahydropicene-4a (2H)-carboxylate]
8.38 ± 2.22 µM | 126 to 128 °C | 3.65 ± 1.06 µM | 9.15 ± 2.21 µM | 7.23 ± 1.56 µM | > 10 µM | COc1ccc(-c2nnc(COC(=O)[C@]34CCC(C)(C)C[C@H]3C3=CC[C@@H]5[C@@]6(C)CC[C@H](O)[C@@](C)(C=O)[C@@H]6CC[C@@]5(C)[C@]3(C)C[C@H]4O)o2)cc1 [Compound B4, (5-(4-methoxyphenyl)-1,3,4-oxadiazol-2-yl)methyl (4aR,5R,6aS,6bR,8aR,9S,10S,12aR,12bR,14bS)-9-formyl-5,10-dihydroxy-2,2,6a,6b,9,12a-hexamethyl-1,3,4,5,6,6a,6b,7,8,8a,9,10,11,12,12a,12b,13,14b-octadecahydropicene-4a (2H)-carboxylate]
8.45 ± 2.15 µM | 136 to 138 °C | 3.81 ± 1.23 µM | 7.36 ± 1.45 µM | > 10 µM | > 10 µM | COc1cc(-c2nnc(COC(=O)[C@]34CCC(C)(C)C[C@H]3C3=CC[C@@H]5[C@@]6(C)CC[C@H](O)[C@@](C)(C=O)[C@@H]6CC[C@@]5(C)[C@]3(C)C[C@H]4O)o2)cc(OC)c1OC [Compound B5, (5-(3,4,5-trimethoxyphenyl)-1,3,4-oxadiazol-2-yl)methyl (4aR,5R,6aS,6bR,8aR,9S,10S,12aR,12bR,14bS)-9-formyl-5,10-dihydroxy-2,2,6a,6b,9,12a-hexamethyl-1,3,4,5,6,6a,6b,7,8,8a,9,10,11,12,12a,12b,13,14b-octadecahydropicene-4a (2H)-carboxylate]
> 10 µM | 140 to 142 °C | 3.65 ± 1.22 µM | > 10 µM | > 10 µM | > 10 µM | CC1(C)CC[C@]2(C(=O)OCc3nnc(-c4ccc([N+](=O)[O-])cc4)o3)[C@H](O)C[C@]3(C)C(=CC[C@@H]4[C@@]5(C)CC[C@H](O)[C@@](C)(C=O)[C@@H]5CC[C@]43C)[C@@H]2C1 [Compound B6, (5-(4-nitrophenyl)-1,3,4-oxadiazol-2-yl)methyl (4aR,5R,6aS,6bR,8aR,9S,10S,12aR,12bR,14bS)-9-formyl-5,10-dihydroxy-2,2,6a,6b,9,12a-hexamethyl-1,3,4,5,6,6a,6b,7,8,8a,9,10,11,12,12a,12b,13,14b-octadecahydropicene-4a (2H)-carboxylate]
> 10 µM | 174 to 176 °C | 4.43 ± 1.34 µM | > 10 µM | 6.12 ± 1.56 µM | > 10 µM | CC1(C)CC[C@]2(C(=O)OCCn3ncn(-c4ccccc4)c3=O)[C@H](O)C[C@]3(C)C(=CC[C@@H]4[C@@]5(C)CC[C@H](O)[C@@](C)(C=O)[C@@H]5CC[C@]43C)[C@@H]2C1 [Compound C1, 2-(5-oxo-4-phenyl-4,5-dihydro-1H-1,2,4-triazol-1-yl)ethyl (4aR,5R,6aS,6bR,8aR,9S,10S,12aR,12bR,14bS)-9-formyl-5,10-dihydroxy-2,2,6a,6b,9,12a-hexamethyl-1,3,4,5,6,6a,6b,7,8,8a,9,10,11,12,12a,12b,13,14b-octadecahydropicene-4a (2H)-carboxylate]
> 10 µM | 176 to 178 °C | > 10 µM | > 10 µM | > 10 µM | > 10 µM | CC1(C)CC[C@]2(C(=O)OCCn3ncn(-c4ccc(F)cc4)c3=O)[C@H](O)C[C@]3(C)C(=CC[C@@H]4[C@@]5(C)CC[C@H](O)[C@@](C)(C=O)[C@@H]5CC[C@]43C)[C@@H]2C1 [Compound C2, 2-(4-(4-fluorophenyl)-5-oxo-4,5-dihydro-1H-1,2,4-triazol-1-yl)ethyl (4aR,5R,6aS,6bR,8aR,9S,10S,12aR,12bR,14bS)-9-formyl-5,10-dihydroxy-2,2,6a,6b,9,12a-hexamethyl-1,3,4,5,6,6a,6b,7,8,8a,9,10,11,12,12a,12b,13,14b-octadecahydropicene-4a (2H)-carboxylate]
> 10 µM | 166 to 168 °C | 3.11 ± 1.02 µM | > 10 µM | 7.11 ± 1.54 µM | > 10 µM | CC1(C)CC[C@]2(C(=O)OCCn3ncn(-c4ccc(Cl)cc4)c3=O)[C@H](O)C[C@]3(C)C(=CC[C@@H]4[C@@]5(C)CC[C@H](O)[C@@](C)(C=O)[C@@H]5CC[C@]43C)[C@@H]2C1 [Compound C3, 2-(4-(4-chlorophenyl)-5-oxo-4,5-dihydro-1H-1,2,4-triazol-1-yl)ethyl (4aR,5R,6aS,6bR,8aR,9S,10S,12aR,12bR,14bS)-9-formyl-5,10-dihydroxy-2,2,6a,6b,9,12a-hexamethyl-1,3,4,5,6,6a,6b,7,8,8a,9,10,11,12,12a,12b,13,14b-octadecahydropicene-4a (2H)-carboxylate]
